Biological target: α-glucosidase
Experiment: α-glucosidase inhibition assay (PNPG method)
Format: biochemical, yeast
Settings: acarbose positive control, three repetitions, read-out: IC50 ± SD of α-glucosidase inhibition, S. dulcificum components
Text: Ultrapure water was obtained using the UP series ultrapure water system (Chengdu, China). […] HPLC-grade formic acid was purchased from Shanghai Aladdin Biochemical Technology Co., Ltd. (Shanghai, China). HPLC-grade methanol and acetonitrile were purchased from Merck (Darmstadt, Germany). Di-methyl sulfoxide (DMSO) was purchased from Tianjin Dama Chemical Reagent Factory (Tianjin, China). Disodium hydrogen phosphate was purchased from Guangdong Guanghua Technology Co., Ltd. (Shantou, China). Other analytical-grade chemicals and reagents, such as sodium chloride and anhydrous ethanol, were obtained from Sichuan Xilong Scientific Co., Ltd. (Chengdu, China).
Soak the crushed stems, leaves, and fruits of S. dulcificum in methanol for 24 h, then extract the chemical components using ethyl acetate. After that, concentrate the extract using a rotary vacuum evaporator, repeating the extraction three times to obtain the crude extracts, which are then prepared at concentrations of 0.5, 1, 8, and 16 mg/mL, respectively, for subsequent inhibition experiments.
The assay was conducted following a previously described method, and made some minor adjustments. Briefly, 0.1 M phosphate-buffered saline (PBS, pH 6.9) was used to prepare standard sample solutions of different concentrations, α-glucosidase (1 U/mL), and p-nitrophenyl-α-D-glucopyranoside (α-PNPG, 5 mM). A mixture of the sample (50 μL) and α-glucosidase (50 μL) was incubated at 37 °C for 10 min, followed by the addition of 50 μL of PNPG and further incubation at 37 °C for 20 min. Finally, 100 μL of Na2CO3 (0.1 M) was added to terminate the reaction after incubating at 37 °C for 10 min. […] The experiment was set up with three repetitions, and the IC50 values were determined.

Row | IC50 [mM] | SMILES
1 | 55.1 ± 1.8 | CC(C)=CCC/C(C)=C/CC/C(C)=C/CC/C=C(\C)CC/C=C(\C)CCC=C(C)C [Squalene]
2 | 4.18 ± 1.09 | COC(=O)c1cc(O)c(O)c(O)c1 [Methyl gallate]
3 | 2.12 ± 0.44 | C[C@H]1[C@H](C)CC[C@]2(C(=O)O)CC[C@]3(C)C(=CC[C@@H]4[C@@]5(C)C[C@@H](O)[C@H](O)C(C)(C)[C@@H]5CC[C@]43C)[C@H]12 [Corosolic acid]
4 | 0.07 ± 0.02 | C=C(C)[C@@H]1CC[C@]2(C(=O)O)CC[C@]3(C)[C@H](CC[C@@H]4[C@@]5(C)CC[C@H](O)C(C)(C)[C@@H]5CC[C@]43C)[C@@H]12 [Betulinic acid]

Row | SMILES | IC50 [mM]
5 | CC[C@H](/C=C/[C@@H](C)[C@H]1CC[C@H]2[C@@H]3CC=C4C[C@@H](O)CC[C@]4(C)[C@H]3CC[C@]12C)C(C)C [Stigmasterol] | 2.11 ± 0.24
6 | COc1cc(/C=C/CO)cc(OC)c1O[C@@H]1O[C@H](CO)[C@@H](O)[C@H](O)[C@H]1O [Syringin] | 5.4 ± 1.2

Tested on: not given
Experiment: not given
Design: method as in doi:10.1016/j.jtice.2010.05.008
Settings: isolated from the stem of SD; cited from earlier work

Row | SMILES | DPPH radical scavenging activity compared to positive control vitamin C
7 | COc1cc([C@H]2OC[C@H]3[C@@H]2CO[C@@H]3c2cc(OC)c(O)c(OC)c2)cc(OC)c1O [(+)-syringaresinol] | superior
8 | COc1cc([C@H]2OC[C@H]3[C@@H]2CO[C@H]3c2cc(OC)c(O)c(OC)c2)cc(OC)c1O [(+)-epi-syringaresinol] | superior

Tested on: type 2 diabetic albino rats
Experiment: not given
Design: method as in PMID 28917550
Settings: cited from earlier work

Row | SMILES | blood glucose levels
9 | COc1ccc(Cl)cc1C(=O)NCCc1ccc(S(=O)(=O)NC(=O)NC2CCCCC2)cc1 [glibenclamide] | significantly lowered

Source: publication PMC12299813, “Combined Metabolomics and Network Pharmacology to Reveal Anti-Diabetic Mechanisms and Potential Pharmacological Components of Synsepalum dulcificum” (Plants, 2025)
